Values of other authors in patent US6718687B2 (priority 2002, dated 2004).

Tested on: mosquitoes

## C=CC(O)CCCCC (centres unmarked) [Octenol, 1-octen-3-oL]
Octenol and CO2 versus CO2 alone
  results from traps baited with Octenol and CO2 compared with CO2 alone: not significant
Octenol at the release rate tested, unless CO2 was also used
  effectiveness as attractant for mosquitoes: not an effective attractant
